Data set [1] addresses T1, Aurora A (Homo sapiens, UniProt O14965).
T1 sequence (O14965 1-403): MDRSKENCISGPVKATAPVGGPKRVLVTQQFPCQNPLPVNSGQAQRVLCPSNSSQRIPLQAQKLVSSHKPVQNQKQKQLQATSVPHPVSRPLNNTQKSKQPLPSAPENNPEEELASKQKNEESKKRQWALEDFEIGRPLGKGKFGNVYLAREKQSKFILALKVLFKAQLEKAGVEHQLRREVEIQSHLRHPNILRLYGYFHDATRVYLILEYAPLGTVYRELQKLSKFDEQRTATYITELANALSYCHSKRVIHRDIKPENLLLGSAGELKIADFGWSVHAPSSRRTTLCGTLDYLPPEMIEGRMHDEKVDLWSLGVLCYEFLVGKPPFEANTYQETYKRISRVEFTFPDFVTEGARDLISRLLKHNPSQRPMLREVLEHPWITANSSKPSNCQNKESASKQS
The format is biochemical. The settings on record: for Ki: calculated from mean IC50 using the Cheng-Prusoff equation, read-out: AurA Ki; for AurA ligand efficiency (LE): from Ki.
Method: (§1) IC50 values were obtained for an expanded version of the fragment library using the previously described mobility shift assay.[44] Subsequently, Ki values were estimated from IC50 values to allow better comparison of the activity against targets which were measured at different substrate concentrations (Supplementary data Table 1).
(§2) IC50 values for MPS1, Aurora A and Aurora B inhibition were determined as previously described,[44] and Ki values were estimated from the mean IC50 values using the Cheng-Prusoff equation.[48]
(§3) Kinase [ATP] (M) [Enzyme] (nM) [Peptide Substrate] (M) MgCl2 (mM)
(§4) For all compounds, IC50 values for MPS1, Aurora A, and Aurora B were determined
(§5) using MPS1 and Aurora A/B mobility shift assays as described previously.1 IC50
(§6) values were calculated from a four-parameter logistic fit of percentage inhibition
(§7) versus concentration (at 8 compound concentrations) using GraphPad Prism 5
(§8) (GraphPad Software, Inc., CA, USA). Mean IC50 values were determined from two
(§9) independent measurements each carried out in duplicate. Ki values were estimated
(§10) from the mean IC50 values using the Cheng-Prusoff equation.

Data set [2] has as its target Aurora B (Homo sapiens, UniProt Q96GD4). The format is biochemical. As to conditions: for Ki: calculated from mean IC50 using the Cheng-Prusoff equation, read-out: AurB Ki; for AurB ligand efficiency (LE): from Ki.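 On all read-outs here: aurora B inhibition measured in a mobility shift assay, underlying mean IC50 taken from two independent duplicate runs at 8 compound concentrations.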
Method: as §1, §2, §3, §4, §5, §6, §7, §8, §9, §10
Data set [3] addresses T2, MPS1 (Homo sapiens, UniProt P33981).
T2 sequence (P33981 1-857): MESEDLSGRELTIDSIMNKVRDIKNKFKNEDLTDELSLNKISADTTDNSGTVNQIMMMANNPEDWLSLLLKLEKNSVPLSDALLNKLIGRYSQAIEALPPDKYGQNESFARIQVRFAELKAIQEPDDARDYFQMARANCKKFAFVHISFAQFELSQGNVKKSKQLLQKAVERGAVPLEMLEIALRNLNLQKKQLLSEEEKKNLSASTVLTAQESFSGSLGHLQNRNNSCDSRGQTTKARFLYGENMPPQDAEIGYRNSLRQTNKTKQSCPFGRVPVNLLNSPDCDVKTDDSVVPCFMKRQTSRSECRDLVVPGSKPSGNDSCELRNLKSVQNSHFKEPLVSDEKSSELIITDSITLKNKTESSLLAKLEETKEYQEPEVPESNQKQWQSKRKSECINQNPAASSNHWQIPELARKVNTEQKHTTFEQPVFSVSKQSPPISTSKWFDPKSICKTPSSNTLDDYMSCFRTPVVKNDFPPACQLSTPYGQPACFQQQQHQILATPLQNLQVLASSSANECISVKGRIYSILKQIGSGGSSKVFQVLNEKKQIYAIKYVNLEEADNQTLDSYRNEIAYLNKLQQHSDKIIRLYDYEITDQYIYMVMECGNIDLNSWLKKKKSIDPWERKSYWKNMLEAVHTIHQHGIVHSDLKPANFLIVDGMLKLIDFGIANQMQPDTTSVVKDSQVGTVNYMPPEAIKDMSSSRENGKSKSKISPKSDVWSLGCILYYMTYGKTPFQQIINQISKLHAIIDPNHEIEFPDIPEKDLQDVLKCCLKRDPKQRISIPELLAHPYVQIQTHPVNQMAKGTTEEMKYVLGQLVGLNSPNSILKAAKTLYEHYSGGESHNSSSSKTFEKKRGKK
The format is biochemical. The settings on record: for Ki: calculated from mean IC50 using the Cheng-Prusoff equation; for MPS1 ligand efficiency (LE): from Ki.
Method: as §1, §2, §3, §4, §5, §6, §7, §8, §9, §10

Data set [4] concerns the target T3, SRC (Homo sapiens, UniProt P12931).
T3 construct: purchased Perkin Elmer (ProfilerPro assay kit 1)
Briefly: 26-kinase panel mobility shift assay, single concentration. Type of data set: biochemical. The settings on record: read-out: % Inhibition SRC.
Method: (§11) In order to test the biochemical activity of our fragment library, a panel of 26 structurally diverse protein kinases was used.
(§12) Screening of 26 kinases using a mobility shift assay
(§13) A mobility shift assay to determine kinase inhibition was carried out using a
(§14) modified version of the ProfilerPro assay kit 1 (Perkin Elmer, Coventry, UK)
(§15) including MPS1 and Aurora B. Each kit contained an enzyme plate, a substrate
(§16) plate, reconstitution buffer, 1 M DTT, protease inhibitor cocktail and termination
(§17) buffer. Test compounds were added as a solution in DMSO.
(§18) peptide phosphorylation assay was carried out as per the manufacturer’s
(§19) instructions. The electrophoretic separation and analysis of the phosphorylated
(§20) and non-phosphorylated peptides was carried out on a 4-sipper chip using a
(§21) LabChip EZReader II (Perkin Elmer). Results were expressed as % inhibition of
(§22) peptide phosphorylation relative to control wells for 0 % (no test compound) and
(§23) 100 % (no ATP) inhibition. The percentage inhibition was calculated using the
(§24) % Inhibition = [1 - (% Conversion Sample / % Conversion 0% Inhibition Control)] x 100

The target of data set [5] is T4, AKT2 (Homo sapiens, UniProt P31751).
T4 construct: purchased Perkin Elmer ProfilerPro assay kit 1
The description is as above. The format is biochemical. The settings on record: read-out: % Inhibition AKT2.
Method: as §11, §12, §13, §14, §15, §16, §17, §18, §19, §20, §21, §22, §23, §24

For data set [6], the target named is T2, MPS1. Briefly: biochemical. The settings on record: read-out: % Inhibition MPS1.
Method: as §11, §12, §13, §14, §15, §16, §17, §18, §19, §20, §21, §22, §23, §24
Data set [7] has as its target T5, INSR (Homo sapiens, UniProt P06213).
T5 construct: purchased Perkin Elmer (ProfilerPro assay kit 1)
Briefly: 26-kinase panel mobility shift assay, single concentration. As to conditions: read-out: % Inhibition INSR. Type of data set: biochemical.
Method: as §11, §12, §13, §14, §15, §16, §17, §18, §19, §20, §21, §22, §23, §24

Where a name gives a salt, the structure may show the parent alone.

Sequence of Aurora B (Q96GD4 whole entry): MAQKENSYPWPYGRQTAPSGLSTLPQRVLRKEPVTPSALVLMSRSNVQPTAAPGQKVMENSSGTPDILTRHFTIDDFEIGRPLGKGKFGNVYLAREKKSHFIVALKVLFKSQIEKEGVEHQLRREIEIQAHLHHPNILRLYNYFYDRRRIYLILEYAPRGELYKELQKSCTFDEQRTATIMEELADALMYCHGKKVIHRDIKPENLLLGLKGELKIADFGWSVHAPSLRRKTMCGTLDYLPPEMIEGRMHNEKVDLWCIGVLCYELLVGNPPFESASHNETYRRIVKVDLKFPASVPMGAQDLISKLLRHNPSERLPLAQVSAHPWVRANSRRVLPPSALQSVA
T4 sequence (P31751 whole entry): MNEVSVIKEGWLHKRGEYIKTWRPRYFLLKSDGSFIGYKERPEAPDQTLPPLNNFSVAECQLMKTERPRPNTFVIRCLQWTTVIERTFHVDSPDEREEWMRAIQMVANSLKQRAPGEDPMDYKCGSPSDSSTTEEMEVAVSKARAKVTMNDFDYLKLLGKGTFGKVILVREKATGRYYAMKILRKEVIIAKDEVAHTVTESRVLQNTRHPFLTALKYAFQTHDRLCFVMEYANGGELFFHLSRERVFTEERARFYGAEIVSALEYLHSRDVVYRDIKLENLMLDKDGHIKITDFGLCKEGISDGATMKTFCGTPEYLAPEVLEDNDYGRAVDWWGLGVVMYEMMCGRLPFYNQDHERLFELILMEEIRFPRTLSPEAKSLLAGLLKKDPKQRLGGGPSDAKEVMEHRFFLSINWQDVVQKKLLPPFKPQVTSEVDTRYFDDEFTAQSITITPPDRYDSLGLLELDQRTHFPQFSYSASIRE
T5 sequence (P06213 28-1382): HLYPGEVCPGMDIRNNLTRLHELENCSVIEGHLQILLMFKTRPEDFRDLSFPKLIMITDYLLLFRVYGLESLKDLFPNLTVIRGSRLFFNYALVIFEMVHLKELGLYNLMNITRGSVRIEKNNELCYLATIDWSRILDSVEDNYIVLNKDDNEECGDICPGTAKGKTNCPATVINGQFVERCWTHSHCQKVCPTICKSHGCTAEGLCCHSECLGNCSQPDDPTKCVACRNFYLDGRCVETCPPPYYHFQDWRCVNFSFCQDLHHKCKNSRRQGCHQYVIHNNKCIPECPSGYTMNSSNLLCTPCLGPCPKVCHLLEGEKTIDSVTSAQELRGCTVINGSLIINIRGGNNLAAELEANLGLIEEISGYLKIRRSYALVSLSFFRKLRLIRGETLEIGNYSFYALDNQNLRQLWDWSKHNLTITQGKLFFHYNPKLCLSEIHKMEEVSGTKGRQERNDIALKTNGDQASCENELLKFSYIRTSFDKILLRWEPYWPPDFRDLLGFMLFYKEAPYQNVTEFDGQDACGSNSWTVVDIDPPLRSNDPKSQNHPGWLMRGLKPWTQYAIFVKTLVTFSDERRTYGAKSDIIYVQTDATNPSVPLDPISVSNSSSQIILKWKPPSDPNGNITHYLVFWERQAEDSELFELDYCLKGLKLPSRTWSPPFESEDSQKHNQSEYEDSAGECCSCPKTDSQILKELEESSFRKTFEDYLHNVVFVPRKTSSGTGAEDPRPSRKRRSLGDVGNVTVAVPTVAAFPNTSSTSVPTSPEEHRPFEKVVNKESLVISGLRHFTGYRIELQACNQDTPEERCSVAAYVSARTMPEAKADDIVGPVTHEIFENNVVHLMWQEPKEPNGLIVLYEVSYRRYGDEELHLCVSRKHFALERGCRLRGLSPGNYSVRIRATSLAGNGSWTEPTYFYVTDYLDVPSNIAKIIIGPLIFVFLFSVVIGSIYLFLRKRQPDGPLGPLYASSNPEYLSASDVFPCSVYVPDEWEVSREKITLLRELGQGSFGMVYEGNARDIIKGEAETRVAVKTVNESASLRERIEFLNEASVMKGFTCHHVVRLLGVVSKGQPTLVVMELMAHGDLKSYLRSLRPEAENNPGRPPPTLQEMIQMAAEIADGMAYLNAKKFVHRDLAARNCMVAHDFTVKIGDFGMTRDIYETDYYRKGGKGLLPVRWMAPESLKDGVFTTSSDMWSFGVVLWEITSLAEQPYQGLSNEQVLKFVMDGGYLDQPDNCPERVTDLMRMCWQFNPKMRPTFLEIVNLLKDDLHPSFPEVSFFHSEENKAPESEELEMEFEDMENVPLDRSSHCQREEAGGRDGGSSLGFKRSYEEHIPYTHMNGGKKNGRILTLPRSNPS
T3 sequence (P12931 whole entry): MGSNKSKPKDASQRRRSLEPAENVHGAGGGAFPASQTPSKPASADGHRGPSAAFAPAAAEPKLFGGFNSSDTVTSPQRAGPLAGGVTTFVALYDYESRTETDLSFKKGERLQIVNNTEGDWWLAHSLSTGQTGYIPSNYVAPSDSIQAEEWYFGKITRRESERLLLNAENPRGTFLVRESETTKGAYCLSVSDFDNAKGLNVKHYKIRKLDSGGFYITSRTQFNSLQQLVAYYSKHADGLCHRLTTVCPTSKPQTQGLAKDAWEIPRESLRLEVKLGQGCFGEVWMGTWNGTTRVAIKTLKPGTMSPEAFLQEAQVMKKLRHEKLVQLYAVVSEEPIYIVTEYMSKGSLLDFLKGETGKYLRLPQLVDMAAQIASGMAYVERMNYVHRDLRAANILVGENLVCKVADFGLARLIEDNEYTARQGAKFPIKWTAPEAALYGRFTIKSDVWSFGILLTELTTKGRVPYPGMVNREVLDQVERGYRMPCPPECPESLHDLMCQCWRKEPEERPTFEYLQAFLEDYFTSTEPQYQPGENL

Broadly, the melting point is the temperature, or range, at which the solid turns liquid. The compound `Nc1cc(-c2cncnc2)c[nH]c1=O` (as salt: sodium) [Compound 10, 3-Amino-5-(pyrimidin-5-yl)pyridin-2(1H)-one] came in with a melting point of 240 °C.
One may read the Ki as the dissociation constant of the complex between target and ligand, obtained from inhibition or displacement. As for `Nc1cc(-c2ccccc2)cnc1O` [Compound 9, 3-Amino-5-phenyl-pyridin-2-one], in data set [1], the Ki was 66.9 µM and the “AurA ligand efficiency (LE)” value was determined as 0.41. In data set [2], the inhibitory constant (Ki) was 70.3 µM and the “AurB ligand efficiency (LE)” value was determined as 0.40. Also, in data set [3], the Ki was 128 µM and the “MPS1 ligand efficiency (LE)” value worked out at 0.38.
With `Nc1cc(-c2cncnc2)c[nH]c1=O` [Compound 10, 3-Amino-5-(pyrimidin-5-yl)pyridin-2(1H)-one], in data set [1], the Ki is 89.6 µM and the “AurA ligand efficiency (LE)” value is reported as 0.39. For the same compound, in data set [2], the Ki is 18.7 µM and the “AurB ligand efficiency (LE)” value was determined as 0.46. Also, in data set [3], the Ki is 269 µM and the “MPS1 ligand efficiency (LE)” value was 0.35.
Turning to `Nc1cc(-c2cccnc2)c[nH]c1=O` [Compound 11], in data set [1], the Ki was 125 µM and the “AurA ligand efficiency (LE)” value is 0.38. Also, in data set [2], the Ki was 97.2 µM and the “AurB ligand efficiency (LE)” value is given as 0.39. In addition, in data set [3], the Ki is 98.1 µM and the “MPS1 ligand efficiency (LE)” value worked out at 0.39.
On to `Cc1[nH]c(=O)c(C#N)cc1-c1ccncc1` [Compound 13, Milrinone, reference compound], for which the Ki in data set [1], in data set [2] and in data set [3] was more than 100 µM throughout.
Regarding `Cc1[nH]c(=O)c(C(N)=O)cc1-c1ccncc1` [Compound 14], the Ki in data set [1], in data set [2] and in data set [3] was more than 100 µM in each case.
A word on the inhibition: it is the relative decrease from the control value, in per cent. The compound `COc1cccc(C(=O)Nc2cc(-c3ccncc3)c[nH]c2=O)c1` [Compound 17, 3-Methoxy-N-(2-oxo-5-(pyridin-4-yl)-1,2-dihydropyridin-3-yl)benzamide] came in with a melting point of 287 °C. In data set [4], the inhibition at 100 µM was found to be 59%. Besides, the inhibition at 100 µM in data set [5] was found to be 50%. For the same compound, in data set [6], the inhibition at 100 µM stood at 42%. Also, in data set [7], the inhibition at 100 µM was 21%. For the same compound, the inhibition constant (Ki) in data set [3] is 24.8 µM.
Regarding `COc1cc(OC)cc(C(=O)Nc2cc(-c3ccncc3)c[nH]c2=O)c1` [Compound 18, 3,5-Dimethoxy-N-(2-oxo-5-(pyridin-4-yl)-1,2-dihydropyridin-3-yl)benzamide], the results for the Ki in data set [1], in data set [2] and in data set [3] were more than 100 µM, 32.9 µM and 30.1 µM, respectively.
In turn, `O=C(Nc1cc(-c2ccncc2)c[nH]c1=O)c1cccc(F)c1` [Compound 19, 3-Fluoro-N-(2-oxo-5-(pyridin-4-yl)-1,2-dihydropyridin-3-yl)benzamide] yielded a melting point of 292 °C. The Ki in data set [1] is more than 100 µM. Moreover, the Ki in data set [2] was more than 100 µM. Moreover, in data set [3], the Ki was more than 100 µM.
`O=C(Nc1cc(-c2ccncc2)c[nH]c1=O)c1cc(F)cc(F)c1` [Compound 20] showed a melting point of 293 °C.
For the compound `O=c1[nH]cc(-c2ccncc2)cc1NS(=O)(=O)c1ccccc1` [Compound 21], the melting point came out at 289 °C. Moreover, the Ki in data set [1] was more than 100 µM. Moreover, the Ki in data set [2] is more than 100 µM. In data set [3], the inhibitory constant (Ki) was more than 100 µM.
Consider `O=C(Nc1cc(-c2ccncc2)c[nH]c1=O)c1ccc(N2CCCCC2)cc1` [Compound 23], for which the melting point worked out at 284 °C. In data set [1], the Ki is 2.6 µM and the “AurA ligand efficiency (LE)” value is given as 0.27. In data set [2], the Ki was 7.4 µM and the “AurB ligand efficiency (LE)” value is 0.25. For the same compound, in data set [3], the Ki is 2.9 µM and the “MPS1 ligand efficiency (LE)” value amounted to 0.27.

These data come from PMC6008489 (Bioorganic & Medicinal Chemistry, 2018).
